Results published in patent publication US20210324041A1, “COMBINATION THERAPIES” (Shattuck Labs, Inc., priority 2018, published 2021).

Key:
[1] = test system: CT26 (murine colon carcinoma) tumor cells; assay: In vivo anti-tumor activity of combinations of a STING agonist and chimeric proteins (CT26 tumor model); parameters: species or system BALB/C mice; conditions: for effectiveness of combination by order of administration: chimeric protein provided after DMXAA relative to DMXAA following the chimeric protein
Protocol: The in vivo ability of specific combinations of a stimulator of interferon genes (STING) agonist and chimeric proteins to target and reduce tumor volume was determined.
BALB/C mice were inoculated with 500,000 CT26 (murine colon carcinoma) tumor cells. Eight days after inoculation, there was no significant difference between starting tumor volumes among the mice, i.e., volumes were approximately 100 mm^3. Specific combinations were included: DMXAA; anti-PD-1 (RMP1-14); anti-OX40 (OX86); PD1-Fc-OX40L; CSF1R-Fc-CD40L (FIG. 8A); DMXAA then anti-PD1; DMXAA then anti-OX40; DMXAA then PD1-Fc-OX40L; DMXAA then CSF1R-Fc-CD40L (FIG. 8B); PD1-Fc-OX40L then […]; and CSF1R-Fc-CD40L then DMXAA (FIG. 8C). Tumor sizes were assayed every other day until the 27th day after inoculation. Mice that rejected the tumor were re-challenged with a secondary tumor (300,000 CT26 tumor cells) on the opposing flank, and primary/secondary tumors continued to be measured.

[2] = In vivo toxicity in mice
Protocol: (§1) Mice were administered a vehicle or the murine CSF1R-Fc-CD40L chimeric protein and Cynomolgus Macaques were administered a vehicle or the human CSF1R-Fc-CD40L chimeric protein and the relative amount of various cytokines (e.g., CCL4, IL-18, IL-23, and IL-10) were detected and quantified.

[3] = test system: various cytokines (e.g., CCL4, IL-18, IL-23, and IL-10); assay: In vivo serum cytokine expression in mice (Luminex); conditions: murine CSF1R-Fc-CD40L, relative to vehicle, FIG. 10
Protocol: (§2) The ability of the CSF1R-Fc-CD40L chimeric protein to induce in vivo cytokine expression in mice and in a non-human primate (Cynomolgus Macaque) was determined.
as §1

[4] = In vivo toxicity in monkeys
Protocol: as §1

[5] = test system: various cytokines (e.g., CCL4, IL-18, IL-23, and IL-10); assay: In vivo serum cytokine expression in Cynomolgus Macaques (Luminex); parameters: species or system Cynomolgus Macaque; conditions: monkeys; human CSF1R-Fc-CD40L; relative to vehicle; FIG. 10
Protocol: as §2, §1

[6] = test system: CT26 (murine colon carcinoma) tumor cells; assay: In vivo anti-tumor activity of combinations of antibodies directed to immune checkpoint molecules and chimeric proteins (CT26 tumor model); parameters: species or system BALB/C mice; conditions: for tumor volume: relative to vehicle, until the 35th day, antibodies three doses of 100 μg, chimeric protein three doses of 300 μg
Protocol: The in vivo ability of specific combinations of antibodies directed to immune checkpoint molecules and chimeric proteins to target and reduce tumor volume was determined.
BALB/C mice were inoculated with 500,000 CT26 (murine colon carcinoma) tumor cells. Eight days after inoculation, there was no significant difference between starting tumor volumes among the mice, i.e., volumes were approximately 100 mm^3. Specific combinations were included: anti-CTLA-4 (9D9); anti-PD-1 (RMP1-14); anti-OX40 (OX86); PD1-Fc-OX40L; CSF1R-Fc-CD40L (FIG. 3B); anti-CTLA-4 then anti-PD1; anti-CTLA-4 then anti-OX40; anti-CTLA-4 then PD1-Fc-OX40L; anti-CTLA-4 then CSF1R-Fc-CD40L (FIG. 3C); PD1-Fc-OX40L then anti-CTLA-4; and CSF1R-Fc-CD40L then anti-CTLA-4 (FIG. 3D); anti-CTLA-4 then CSF1R-Fc-CD40L; CSF1R-Fc-CD40L then anti-CTLA-4; and CSF1R-Fc-CD40L with anti-CTLA-4 (FIG. 3E and FIG. 3F); and anti-PD-1 then CSF1R-Fc-CD40L; CSF1R-Fc-CD40L then anti-PD-1; and CSF1R-Fc-CD40L with anti-PD-1 (FIG. 4A and FIG. 4B).
In the experiments shown in FIG. 3A to FIG. 3D, tumor sizes were assayed every other day until the 27th day after inoculation. Mice that rejected the tumor were re-challenged with a secondary tumor (300,000 CT26 tumor cells) on the opposing flank, and primary/secondary tumors continued to be measured. In the experiments shown in FIG. 3E to FIG. 4B, tumor sizes were assayed every other day until the 35th day after inoculation. Mice that rejected the tumor were re-challenged with a secondary tumor (300,000 CT26 tumor cells) on the opposing flank, and primary/secondary tumors continued to be measured. Antibodies were given as three doses of 100 μg, the chimeric protein was given as three doses of 300 μg, with antibodies administered before, after, and simultaneously with the chimeric protein (days 7, 9, & 11; or days 12, 14, & 16).

## Cc1ccc2c(=O)c3cccc(CC(=O)O)c3oc2c1C [DMXAA, 5,6-dimethylxanthenone-4-acetic acid, reference compound]
[1]; FIG. 8A
  anti-tumor activity as a monotherapy: effective anti-tumor agent

## CSF1R-Fc-CD40L: chimeric protein: extracellular region of CSF1R, linker comprising a hinge-CH2-CH3 Fc region, extracellular region of CD40L; murine and human versions used
[2]
  in vivo toxicity: no in vivo toxicity was observed
[1]
  effectiveness of combination by order of administration: more effective
[3]
  serum cytokine levels: greatly enhanced
[4]
  in vivo toxicity: no in vivo toxicity was observed
[5]
  serum cytokine levels: greatly enhanced
[6]; FIG. 3E (anti-CTLA-4 series)
  anti-tumor effects compared among treatment groups: Roughly comparable amounts of anti-tumor effects
  tumor volume: effective in reducing tumor volume
[6]; FIG. 4A (anti-PD-1 series)
  anti-tumor effects compared among treatment groups: Roughly comparable amounts of anti-tumor effects
  tumor volume: effective in reducing tumor volume
[6]; by 30 days after inoculation
  survivors: no survivors
[6]; chimeric protein administered after the anti-CTLA-4 antibody, FIG. 3C, 3D
  improvement in tumor volume reduction by order of administration: most significant improvement

B1: PD1-Fc-OX40L: chimeric protein: extracellular domain of PD-1, linker comprising a hinge-CH2-CH3 Fc domain, extracellular domain of OX40L (protein)
chain: LDSPDRPWNPPTFSPALLVVTEGDNATFTCSFSNTSESFVLNWYRMSPSNQTDKLAAFPEDRSQPGQDCRFRVTQLPNGRDFHMSVVRARRNDSGTYLCGAISLAPKAQIKESLRAELRVTERRAEVPTAHPSPSPRPAGQFQSKYGPPCPPCPAPEFLGGPSVFLFPPKPKDQLMISRTPEVTCVVVDVSQEDPEVQFNWYVDGVEVHNAKTKPREEQFNSTYRVVSVLTVLHQDWLSGKEYKCKVSSKGLPSSIEKTISNATGQPREPQVYTLPPSQEEMTKNQVSLTCLVKGFYPSDIAVEWESNGQPENNYKTTPPVLDSDGSFFLYSRLTVDKSRWQEGNVFSCSVLHEALHNHYTQKSLSLSLGKIEGRMDQVSHRYPRIQSIKVQFTEYKKEKGFILTSQKEDEIMKVQNNSVIINCDGFYLISLKGYFSQEVNISLHYQKDEEPLFQLKKVRSVNSLMVASLTYKDKVYLNVTTDNTSLDDFHVNGGELILIHQNPGEFCVL
[1]
  effectiveness of combination by order of administration: more effective
